Tested on: WT Mtb Erdman strain
Experiment: Microplate Alamar Blue Assay (MABA), Mtb growth inhibition
Type: cell-based, Mycobacterium tuberculosis
Settings: Mycobacterium tuberculosis, ERDMAN, 168 h, Middlebrook 7H9 media, 7 days at 37° C. in 5% CO2

Compound | IC50
Cc1cc2c(N[C@@H]3C[C@H]3c3ccc(F)c(F)c3)nc(C3CC3)nc2s1 [Example 43, 2-cyclopropyl-N-((1R,2S)-2-(3,4-difluorophenyl)cyclopropyl)-6-methylthieno[2,3-d]pyrimidin-4-amine] | 2.4 µM
Cc1cc2c(N[C@@H]3C[C@H]3c3ccc(F)c(F)c3)nc(-c3cccnc3)nc2s1 [Example 44, N-((1R,2S)-2-(3,4-difluorophenyl)cyclopropyl)-6-methyl-2-(pyridin-3-yl)thieno[2,3-d]pyrimidin-4-amine] | 6.3 µM
Fc1ccc([C@@H]2C[C@H]2Nc2nc(-c3ccccn3)nc3sc(C(F)(F)F)cc23)cc1F [Example 45, N-((1R,2S)-2-(3,4-difluorophenyl)cyclopropyl)-2-(pyridin-2-yl)-6-(trifluoromethyl)thieno [2,3-d]pyrimidin-4-amine] | 2.8 µM
Cc1cc2c(N[C@@H]3C[C@H]3c3ccc(F)c(F)c3)nc(-c3ccc(F)cn3)nc2s1 [Example 46, N-((1R,2S)-2-(3,4-difluorophenyl)cyclopropyl)-2-(5-fluoropyridin-2-yl)-6-methylthieno[2,3-d]pyrimidin-4-amine] | 2.2 µM
Cc1cc2c(N[C@@H]3C[C@H]3c3ccc(F)c(F)c3)nc(-c3ccncc3)nc2s1 [Example 47, N-((1R,2S)-2-(3,4-difluorophenyl)cyclopropyl)-6-methyl-2-(pyridin-4-yl)thieno[2,3-d]pyrimidin-4-amine] | > 8.8 µM
Cc1cc2c(NCCCc3ccc(C(F)(F)F)cc3)nc(C(F)(F)F)nc2s1 [Example 48, 6-methyl-2-(trifluoromethyl)-N-(3-(4-(trifluoromethyl)phenyl)propyl)thieno[2,3-d] pyrimidin-4-amine] | 2.6 µM
COc1ccc(CCCNc2nc(C(F)(F)F)nc3sc(C)cc23)cc1 [Example 49, N-(3-(4-methoxyphenyl)propyl)-6-methyl-2-(trifluoromethyl)thieno [2,3-d]pyrimidin-4-amine] | 2 µM
Cc1cc2c(N[C@@H]3C[C@H]3c3ccc(F)c(F)c3)nc(C(C)(F)F)nc2s1 [Example 50, 2-(1,1-difluoroethyl)-N-((1R,2S)-2-(3,4-difluorophenyl)cyclopropyl)-6-methylthieno[2,3-d]pyrimidin-4-amine] | 1.1 µM
Cc1cc2c(NCCCc3ccccc3)nc(C(C)(C)C)nc2s1 [Example 51, 2-(tert-butyl)-6-methyl-N-(3-phenylpropyl)thieno [2,3-d]pyrimidin-4-amine] | > 10 µM
CCCc1nc(N[C@@H]2C[C@H]2c2ccc(F)c(F)c2)c2cc(C)sc2n1 [Example 52, N-((1R,2S)-2-(3,4-difluorophenyl)cyclopropyl)-6-methyl-2-propylthieno[2,3-d]pyrimidin-4-amine] | 0.81 µM
CSc1nc(N[C@@H]2C[C@H]2c2ccc(F)c(F)c2)c2cc(C)sc2n1 [Example 53, N-((1R,2S)-2-(3,4-difluorophenyl)cyclopropyl)-6-methyl-2-(methylthio)thieno[2,3-d]pyrimidin-4-amine] | 0.24 µM
CCCc1nc(NCCCc2ccccc2)c2cc(C)sc2n1 [Example 54, 6-methyl-N-(3-phenylpropyl)-2-propylthieno[2,3-d]pyrimidin-4-amine] | 0.31 µM
CSc1nc(NCCCc2ccccc2)c2cc(C)sc2n1 [Example 55, 6-methyl-2-(methylthio)-N-(3-phenylpropyl)thieno [2,3-d]pyrimidin-4-amine] | 0.017 µM
Cc1cc2c(N[C@@H]3C[C@H]3c3ccc(F)c(F)c3)nc(-c3ccc(F)cc3)nc2s1 [Example 56, N-((1R,2S)-2-(3,4-difluorophenyl)cyclopropyl)-2-(4-fluorophenyl)-6-methylthieno[2,3-d]pyrimidin-4-amine] | 4.2 µM
Cc1cc2c(NCCCc3ccccc3)nc(-c3ncco3)nc2s1 [Example 57, 6-methyl-2-(oxazol-2-yl)-N-(3-phenylpropyl)thieno [2,3-d]pyrimidin-4-amine] | 4.1 µM
Cc1cc2c(NCCCc3ccccc3)nc(C3(N)CC3)nc2s1 [Example 58, 2-(1-aminocyclopropyl)-6-methyl-N-(3-phenylpropyl)thieno [2,3-d]pyrimidin-4-amine] | 5 µM

Compound | IC50
CCc1nc(NCCCc2ccc(F)c(F)c2)c2cc(C)sc2n1 [Example 59, N-(3-(3,4-difluorophenyl)propyl)-2-ethyl-6-methylthieno[2,3-d]pyrimidin-4-amine] | 0.43 µM
Cc1cc2c(NCCCc3ccc(F)c(F)c3)nc(C(F)(F)F)nc2s1 [Example 60, N-(3-(3,4-difluorophenyl)propyl)-6-methyl-2-(trifluoromethyl)thieno [2,3-d]pyrimidin-4-amine] | 4.9 µM
CCc1nc(NC/C=C/c2ccccc2)c2cc(C)sc2n1 [Example 61, N-cinnamyl-2-ethyl-6-methylthieno[2,3-d]pyrimidin-4-amine] | 0.07 µM
CCc1nc(NCCNc2ccccc2)c2cc(C)sc2n1 [Example 62, N1-(2-ethyl-6-methylthieno[2,3-d]pyrimidin-4-yl)-N2-phenylethane-1,2-diamine] | 0.81 µM
Cc1cc2c(NCCCc3ccccc3)nc(-c3cccs3)nc2s1 [Example 63, 6-methyl-N-(3-phenylpropyl)-2-(thiophen-2-yl)thieno[2,3-d]pyrimidin-4-amine] | 1.9 µM
CCc1nc(NCCCOc2ccccc2)c2cc(C)sc2n1 [Example 64, 2-ethyl-6-methyl-N-(3-phenoxypropyl)thieno [2,3-d]pyrimidin-4-amine] | 1.7 µM
CCc1nc(NCCOc2ccc(Br)cc2)c2cc(C)sc2n1 [Example 65, N-(2-(4-bromophenoxy)ethyl)-2-ethyl-6-methylthieno[2,3-d]pyrimidin-4-amine] | 2.8 µM
CCc1nc(NCCC(C)(C)c2ccccc2)c2cc(C)sc2n1 [Example 66, 2-ethyl-6-methyl-N-(3-methyl-3-phenylbutyl)thieno [2,3-d]pyrimidin-4-amine] | 6 µM
CCc1nc(NCCc2ccc(O)cc2)c2cc(C)sc2n1 [Example 67, 4-(2-((2-ethyl-6-methylthieno[2,3-d]pyrimidin-4-yl)amino)ethyl)phenol] | > 10 µM
CCc1nc(NCCS(=O)(=O)c2ccccc2)c2cc(C)sc2n1 [Example 68, 2-ethyl-6-methyl-N-(2-(phenylsulfonyl)ethyl) thieno[2,3-d]pyrimidin-4-amine] | > 10 µM
CCc1nc(NCCCOc2ccc(Cl)cc2)c2cc(C)sc2n1 [Example 69, N-(3-(4-chlorophenoxy)propyl)-2-ethyl-6-methylthieno[2,3-d]pyrimidin-4-amine] | 1.1 µM
CCc1nc(NCCCc2ccc(O)cc2)c2cc(C)sc2n1 [Example 70, 4-(3-((2-ethyl-6-methylthieno[2,3-d]pyrimidin-4-yl)amino)propyl) phenol] | 0.23 µM
CSc1nc(NCCCOc2ccc(Cl)cc2)c2cc(C)sc2n1 [Example 71, N-(3-(4-chlorophenoxy)propyl)-6-methyl-2-(methylthio)thieno[2,3-d]pyrimidin-4-amine] | 0.35 µM
Cc1cc2c(NCCCOc3ccc(Cl)cc3)nc(C(F)(F)F)nc2s1 [Example 72, N-(3-(4-chlorophenoxy)propyl)-6-methyl-2-(trifluoromethyl)thieno [2,3-d]pyrimidin-4-amine] | 3.9 µM
Cc1cc2c(NCCCc3ccccc3)nc(C(C)(C)N)nc2s1 [Example 73, 2-(2-aminopropan-2-yl)-6-methyl-N-(3-phenylpropyl)thieno [2,3-d]pyrimidin-4-amine] | > 10 µM
